# Source: US8999957B2, “Heterocyclic compounds as ERK inhibitors” (Merck Sharp & Dohme Corp., priority 2010, dated 2015)
# pIC50, pKd: −log10 of the molar value. Several values for one entry are separate records, joined by “and”; a condition that tells them apart may be missing. Identical values can stand only once.
# What was measured:
# [1] = target: ERK protein (Mus musculus, UniProt P63085); assay: TdF (Temperature Dependence Fluorescence, thermal shift) assay for ERK; assay type: binding; settings: 3 μM ERK protein, uncertainty estimated ±50%, read-out: Kd TdF
# Source text: Assays: TdF Assay for ERK […] The TdF assay was mainly conducted in the 96-well based CHROMO-4 real time fluorescence plate reader (BioRad). The Sypro Orange (Sigma-Aldrich), environmentally sensitive fluorescence dye, was used to monitor the protein folding-unfolding transition. Protein-ligand binding was gauged by the change (or shift) in the unfolding transition temperature (ΔTm) acquired at protein alone with respect to protein in the presence of ligand of interest. Compound of interest was first prepared in DMSO stock (typical concentration: 10 mM). […] Final percentage of DMSO resided in the sample was 2%. The sample plate was heated from 30° C. to 90° C. with thermal ramping rate of 1° C./min. […] The instrument thermal stability was ±0.2° C. The melting temperatures (Tm) for ERK protein under aforementioned conditions occurred at 61.0±0.2° C. and 64.8±02° C. respectively. Theoretical Basis for TdF-Based Ligand Binding Affinity Constant […] In brief, the binding constant of the ligand at the Tm is expressed as below: [formula] where T0 is the midpoint of unfolding for unliganded protein and Tm is the midpoint of unfolding in presence of ligand. [LTm] is free ligand at Tm. The ΔHu and ΔCpu are the enthalpy of unfolding and heat capacity change of unfolding for the protein respectively. Following algorithm derived by Winsor and coworker, the T0, ΔHu and ΔCpu can be determined separately from nonlinear regression fitting the protein alone melting curve: Where F(T) is the observed fluorescence intensity at any temperature T, Yn and Yu are the predicted fluorescence intensities for fully folded and unfolded protein, respectively; mn and mu are slope correction for changes in Yn and Yu with respect to changes in temperature (analogously replace T0 with Tm in the above equation for liganded protein to yield Tm). […] [formula] where ΔHL (T) is the van't Hoff enthalpy of ligand binding at temperature T and ΔCpL is the heat capacity upon ligand binding. For simplicity, the ΔCpL and ΔHL (T) were set to zero and −7 kcal/mol respectively.
# [2] = target: fully phosphorylated, active Mouse ERK2 protein (Mus musculus (Mouse), UniProt P63085); assay: Active ERK2 (aERK) IMAP assay, condition 1; assay type: biochemical; settings: aERK assay condition 1, 30 μM ATP
# Method: Active ERK2 (aERK) Assay: (Unless Indicated Otherwise, the Data Provided for aERK was obtained using Condition 1)
# Activated ERK2 activity was also determined in the IMAP assay format using the procedure outlined above. […] Reactions proceeded for 30 minutes before termination by addition of 60 μl IMAP detection beads in binding buffer. Plates were read as above after 30 minute binding equilibration.
# [3] = target: fully phosphorylated, mouse aERK2 enzyme (Mus musculus (Mouse), UniProt P63085); assay: Active ERK2 (aERK) IMAP-FP assay, condition 2; assay type: biochemical; settings: active ERK2; read-out: aErk2 Ic50
# How it was run: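 Phosphorylation by fully phosphorylated mouse ERK2 ran 40-45 min, then quenched with IMAP beads (1:1000) in binding buffer; fluorescence polarization read after 30 min binding equilibration.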
# Chain of fully phosphorylated, active Mouse ERK2 protein (P63085 whole entry): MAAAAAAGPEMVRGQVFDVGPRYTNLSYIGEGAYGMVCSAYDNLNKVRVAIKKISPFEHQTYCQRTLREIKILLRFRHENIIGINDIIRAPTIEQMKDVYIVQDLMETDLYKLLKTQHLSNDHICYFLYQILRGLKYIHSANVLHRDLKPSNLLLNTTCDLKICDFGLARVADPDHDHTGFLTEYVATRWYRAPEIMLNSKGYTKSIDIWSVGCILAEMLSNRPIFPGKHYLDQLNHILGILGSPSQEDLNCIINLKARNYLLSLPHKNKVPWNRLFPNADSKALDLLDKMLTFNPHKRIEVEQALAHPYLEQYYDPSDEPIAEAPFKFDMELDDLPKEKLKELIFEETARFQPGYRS
# Chain of ERK protein (P63085 2-358 limits assumed): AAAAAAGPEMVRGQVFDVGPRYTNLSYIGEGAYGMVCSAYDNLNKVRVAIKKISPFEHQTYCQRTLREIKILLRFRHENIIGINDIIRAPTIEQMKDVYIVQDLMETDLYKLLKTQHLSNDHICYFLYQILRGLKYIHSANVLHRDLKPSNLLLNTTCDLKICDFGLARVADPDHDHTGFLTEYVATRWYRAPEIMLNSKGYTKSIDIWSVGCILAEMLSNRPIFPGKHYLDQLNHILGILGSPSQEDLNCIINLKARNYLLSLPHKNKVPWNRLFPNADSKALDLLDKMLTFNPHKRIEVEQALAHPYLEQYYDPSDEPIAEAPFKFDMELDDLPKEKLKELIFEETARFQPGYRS
# Chain of fully phosphorylated, mouse aERK2 enzyme (P63085 whole entry): as the sequence (P63085 whole entry) above
pKd [1],pIC50 [2],pIC50 [3],Compound
6.97,–,–,O=C(NC1CNCCC1c1cccc(F)c1)c1ccc2[nH]nc(-c3ccncc3)c2c1 (stereo not drawn)
7.14,–,–,O=C(NC1CCCCNC1=O)c1ccc2[nH]nc(-c3ccncc3)c2c1 (stereo not drawn)
6.54,–,–,O=C(NC1CN(C(=O)OCc2ccccc2)CCNC1=O)c1ccc2[nH]nc(-c3ccncc3)c2c1 (stereo not drawn)
8.10,–,–,O=C(Nc1ccc2[nH]nc(-c3ccncc3)c2c1)C1CNCC(c2ccccc2)C1 (stereo not drawn)
9.10,–,–,O=C(NC1CNCC(c2ccccc2)C1)c1ccc2[nH]nc(-c3ccncc3)c2c1 (stereo not drawn)
8.04,6.23,–,O=C(N[C@@H]1CCCN(Cc2ccccn2)C1)c1ccc2[nH]nc(-c3ccc4c(c3)CCO4)c2c1
7.09,6.00,–,N#Cc1ccc(CN2CCC[C@@H](NC(=O)c3ccc4[nH]nc(-c5ccc6c(c5)CCO6)c4c3)C2)cc1
7.12,6.20,–,O=C(N[C@@H]1CCCN(Cc2ccncc2)C1)c1ccc2[nH]nc(-c3ccc4c(c3)CCO4)c2c1
7.98,6.60,–,O=C(N[C@@H]1CCCN(Cc2nccs2)C1)c1ccc2[nH]nc(-c3ccc4c(c3)CCO4)c2c1
6.00,6.00,–,CN(C)c1ccc(CN2CCC[C@@H](NC(=O)c3ccc4[nH]nc(-c5ccc6c(c5)CCO6)c4c3)C2)cc1
9.40,7.70,–,CCc1cc(-c2n[nH]c3ccc(C(=O)N[C@@H]4CCCN(Cc5ccccc5F)C4)cc23)ccn1
9.30,7.97,–,Cc1cc(-c2n[nH]c3ccc(C(=O)N[C@@H]4CCCN(Cc5ccccc5F)C4)cc23)ccn1
8.18,6.29,–,O=C(N[C@@H]1CCCN(Cc2ccccc2F)C1)c1ccc2[nH]nc(-c3ccnc(C(F)(F)F)c3)c2c1
9.28,7.48,–,COc1cccc(F)c1CN1CCCC(NC(=O)c2ccc3[nH]nc(-c4ccc5c(c4)CCO5)c3c2)C1 (stereo not drawn)
10.28,7.79,–,CC1CC(NC(=O)c2ccc3[nH]nc(-c4ccncc4)c3c2)CN(Cc2ccccc2F)C1 (stereo not drawn)
7.96,6.80,–,Cn1cc(CN2CCC[C@@H](NC(=O)c3ccc4[nH]nc(-c5ccc6c(c5)CCO6)c4c3)C2)c2ccccc21
8.63,6.85,–,Cc1cc(-c2n[nH]c3ccc(C(=O)N[C@@H]4CCCN(Cc5ccccc5O)C4)cc23)ccn1
9.66,8.30,–,COc1cccc(F)c1CN1CCC[C@@H](NC(=O)c2ccc3[nH]nc(-c4ccnc(C)c4)c3c2)C1
9.29,7.53,–,Cc1cc(-c2n[nH]c3ccc(C(=O)N[C@@H]4CCCN(Cc5c(F)cccc5F)C4)cc23)ccn1
9.32,7.13,–,CC(=O)Nc1cc(-c2n[nH]c3ccc(C(=O)N[C@@H]4CCCN(Cc5ccccc5F)C4)cc23)ccc1O
9.18,7.19,–,COc1cccc(F)c1CN1CCC[C@@H](NC(=O)c2ccc3[nH]nc(-c4ccc(O)c(NC(C)=O)c4)c3c2)C1
8.89,6.65,–,CC(=O)Nc1cc(-c2n[nH]c3ccc(C(=O)N[C@@H]4CCCN(Cc5c(F)cccc5F)C4)cc23)ccc1O
8.89,6.60,–,COc1ccccc1CN1CCC[C@@H](NC(=O)c2ccc3[nH]nc(-c4ccc(O)c(NC(C)=O)c4)c3c2)C1
8.76,6.61,–,CCCOc1ccccc1CN1CCC[C@@H](NC(=O)c2ccc3[nH]nc(-c4ccnc(C)c4)c3c2)C1
9.82,6.09,–,COc1cccc(F)c1CN1CCC[C@@H](NC(=O)c2ccc3[nH]nc(-c4ccc5sccc5c4)c3c2)C1
9.68,6.31,–,COc1cccc(F)c1CN1CCC[C@@H](NC(=O)c2ccc3[nH]nc(-c4ccc5occc5c4)c3c2)C1
9.57,6.79,–,COc1cccc(F)c1CN1CCC[C@@H](NC(=O)c2ccc3[nH]nc(-c4ccc5cn[nH]c5c4)c3c2)C1
8.58,6.44,–,COc1cccc(F)c1CN1CCC[C@@H](NC(=O)c2ccc3[nH]nc(-c4ccc(S(=O)(=O)N(C)C)cc4)c3c2)C1

pKd [1],pIC50 [2],pIC50 [3],Compound
8.86,6.54,–,COc1cccc(F)c1CN1CCC[C@@H](NC(=O)c2ccc3[nH]nc(-c4cccc(NC(C)=O)c4)c3c2)C1
9.05,6.72,–,COc1cccc(F)c1CN1CCC[C@@H](NC(=O)c2ccc3[nH]nc(-c4ccc(C(C)=O)cc4)c3c2)C1
8.70,6.22,–,COc1cccc(F)c1CN1CCC[C@@H](NC(=O)c2ccc3[nH]nc(-c4cccc(C(C)=O)c4)c3c2)C1
9.62,6.81,–,COc1cccc(F)c1CN1CCC[C@@H](NC(=O)c2ccc3[nH]nc(-c4ccc(C#N)cc4)c3c2)C1
9.08,6.58,–,COc1cccc(F)c1CN1CCC[C@@H](NC(=O)c2ccc3[nH]nc(-c4cccc(C#N)c4)c3c2)C1
8.86,6.71,–,COc1cccc(F)c1CN1CCC[C@@H](NC(=O)c2ccc3[nH]nc(-c4ccc(S(C)(=O)=O)cc4)c3c2)C1
8.19,6.32,–,COc1cccc(F)c1CN1CCC[C@@H](NC(=O)c2ccc3[nH]nc(-c4ccc(N)c(OC(C)=O)c4)c3c2)C1
9.41,6.66,–,COc1cccc(F)c1CN1C[C@H](C)C[C@@H](NC(=O)c2ccc3[nH]nc(-c4ccc5nn(C)cc5c4)c3c2)C1
9.38,7.41,–,COc1cccc(F)c1CN1CC(NC(=O)c2ccc3[nH]nc(-c4ccnc(C)c4)c3c2)CC(OC)C1 (stereo not drawn)
10.00,7.11,–,COc1cccc(F)c1CN1CCC[C@@H](NC(=O)c2ccc3[nH]nc(-c4ccc5nc(C)sc5c4)c3c2)C1
8.39,6.00,–,COc1cccc(F)c1CN1C[C@@H](NC(=O)c2ccc3[nH]nc(-c4ccnc(C)c4)c3c2)CCC1=O
7.75,6.18,–,COc1cccc(F)c1CN1C[C@@H](NC(=O)c2ccc3[nH]nc(-c4ccc5nccn5c4)c3c2)CCC1=O
9.46,7.88,–,[2H]C(c1c(F)cccc1OC)N1CCC[C@@H](NC(=O)c2ccc3[nH]nc(-c4ccnc(C)c4)c3c2)C1 (stereo partly drawn)
8.42,6.84,–,COC(=O)C1CC(NC(=O)c2ccc3[nH]nc(-c4ccnc(C)c4)c3c2)CN(Cc2c(F)cccc2OC)C1 (stereo not drawn)
8.72,6.63,–,Cc1cc(-c2n[nH]c3ccc(C(=O)N[C@@H]4CCCN(Cc5ncccc5F)C4)cc23)ccn1
7.69,6.06,–,Cc1cc(-c2n[nH]c3ccc(C(=O)N[C@@H]4CCCN(Cc5scnc5C)C4)cc23)ccn1
9.01,6.86,–,COc1ccsc1CN1CCC[C@@H](NC(=O)c2ccc3[nH]nc(-c4ccnc(C)c4)c3c2)C1
9.47,7.20,–,[2H]C1(N2CCC[C@@H](NC(=O)c3ccc4[nH]nc(-c5ccnc(C)c5)c4c3)C2)CCc2ccccc21 (stereo partly drawn)
9.59,7.19,–,COc1cccc(F)c1CN1CC(NC(=O)c2ccc3[nH]nc(-c4ccc5nccn5c4)c3c2)CC(C(=O)O)C1 (stereo not drawn)
8.36,6.89,–,Cc1cc(-c2n[nH]c3ccc(C(=O)N[C@@H]4CCCN(C(C)c5ccccc5)C4)cc23)ccn1 (stereo partly drawn)
6.89,6.03,–,Cc1cc(-c2n[nH]c3ccc(C(=O)NC4CCCN(Cc5ncccn5)C4)cc23)ccn1 (stereo not drawn)
8.77,6.85,–,COc1cccc(F)c1CN1CC(CO)CC(NC(=O)c2ccc3[nH]nc(-c4ccc5nccn5c4)c3c2)C1 (stereo not drawn)
8.32,7.01,–,Cc1cc(-c2n[nH]c3ccc(C(=O)N[C@@H]4CCCN(CCc5ccccc5F)C4)cc23)ccn1
8.62,7.48,–,Cc1cc(-c2n[nH]c3ccc(C(=O)N[C@@H]4CCCN(CC(=O)c5ccccc5F)C4)cc23)ccn1
7.07,6.28,–,COc1cccc(F)c1CN1C[C@H]2C[C@@H]1[C@H](NC(=O)c1ccc3[nH]nc(-c4ccc5nn(C)cc5c4)c3c1)C2
8.48,6.05,–,Cn1cc2cc(-c3n[nH]c4ccc(C(=O)NC5C[C@@H]6C[C@H]5N(Cc5c(F)cccc5F)C6)cc34)ccc2n1 (stereo partly drawn)
–,–,7.69 and 7.52,"N-{(3R,6S)-1-(2-fluoro-6-methoxybenzyl)-6- [(2-methylhydrazino)carbonyl]piperidin-3- yl}-3-(2-methylpyridin-4-yl)-1H-indazole-5- carboxamide"

Compound,pKd [1],pIC50 [2],pIC50 [3]
CN1CC(NC(=O)c2ccc3[nH]nc(-c4ccncc4)c3c2)CC(c2ccccc2)C1 (stereo not drawn) [drawing 219],8.85,–,–
